Consider 1 molecule from US20120214784A1, “SPIROPIPERIDINE COMPOUNDS AS ORL-1 RECEPTOR ANTAGONISTS” (ELI LILLY AND COMPANY, priority 2009, published 2012).

One experiment deals with 5-HT1A (Homo sapiens, UniProt P08908). Nature of the experiment: Radioligand binding selectivity. The method, then:
(§1) Radioligand binding assays are commonly used to determine the affinity (Ki) or potency of a compound to bind to a particular receptor or target protein. A filtration-based [3H]-OFQ/nociceptin receptor binding assay is developed based on previous assay formats (Ardati A, Henningsen R A, Higelin J, Reinscheid R K, Civelli O, Monsma F J Jr. Mol. Pharmacol. 1997 May; 51(5):816-24.) with minor modifications. [3H]-OFQ/nociceptin binding assays are carried out in deep-well 96-well plates. [^3H]OFQ (final assay concentration 0.2 nM) competition studies are carried out with 5-10 μg of membrane protein (isolated from Chinese hamster ovary cells (CHO cells) expressing cloned human ORL1 receptors) in a final assay volume of 0.5 mL of buffer containing 20 mM HEPES, pH 7.4, 5 mM MgCl2, 1 mM EGTA, 100 mM NaCl, 0.1% bovine serum albumin. Samples are incubated for 60 min. at room temperature, which is found to be optimal for competition assays. The assays are terminated by filtration through glass fiber filters (Wallac filtermat A) [pretreated with 0.3% polyethylenimine (Sigma) for 1 hr] on a Tometc cell harvester, and the filters are washed three times with 5 mL of ice-cold 50 mM Tris.HCl, pH 7.4. Filtermats are then dried and imbedded with Meltilex scintillant A and the radioactivity counted in a Wallac Microbeta scintillation counter. Specific binding is determined by displacement with 100 nM unlabeled nociceptin. Curves are plotted as the percent of specific binding and IC50 values are determined using a sigmoidal dose response curve with variable slope. K, values are calculated from the IC50 by the equation of Cheng and Prusoff (Cheng, Y. C., and Prusoff, W. H., Biochem. Pharmacol. 22, 3099-3108 (1973)) where Ki=IC50×(1+D×Kd^−1)^−1. Similarly, Ki for the mu, kappa and delta opioids, serotonin, adrenergic, and muscarinic receptors may be determined using membranes expressing the desired receptor and appropriate corresponding radioligand competitor molecules.

A further experiment concerns the target 5-HT1B (Homo sapiens, UniProt P28222). Nature of the experiment: Radioligand binding selectivity. The method, then: as §1
A further experiment deals with 5-HT1D (Homo sapiens, UniProt P28221). Description: Radioligand binding selectivity. The method, then: as §1
In a further experiment the target is 5-HT1E (Homo sapiens, UniProt P28566). Description: Radioligand binding selectivity. The method, then:
as §1

The target of a further experiment is 5-HT2A (Homo sapiens, UniProt P28223). Nature of the experiment: Radioligand binding selectivity. The method, then:
as §1

The next experiment concerns the target 5-HT2B (Homo sapiens, UniProt P41595). Nature of the experiment: Radioligand binding selectivity. The method, then: as §1
The target of another experiment is 5-HT2C (Homo sapiens, UniProt P28335). Nature of the experiment: Radioligand binding selectivity. The method, then: as §1
In the next experiment the target is 5-HT4 (Homo sapiens, UniProt Q13639). Description: Radioligand binding selectivity. The method, then:
as §1

For a further experiment, the target named is 5-HT5 (Homo sapiens, UniProt P47898). Nature of the experiment: Radioligand binding selectivity. The method, then: as §1
5-HT5, sequence (P47898 whole entry, species assumed): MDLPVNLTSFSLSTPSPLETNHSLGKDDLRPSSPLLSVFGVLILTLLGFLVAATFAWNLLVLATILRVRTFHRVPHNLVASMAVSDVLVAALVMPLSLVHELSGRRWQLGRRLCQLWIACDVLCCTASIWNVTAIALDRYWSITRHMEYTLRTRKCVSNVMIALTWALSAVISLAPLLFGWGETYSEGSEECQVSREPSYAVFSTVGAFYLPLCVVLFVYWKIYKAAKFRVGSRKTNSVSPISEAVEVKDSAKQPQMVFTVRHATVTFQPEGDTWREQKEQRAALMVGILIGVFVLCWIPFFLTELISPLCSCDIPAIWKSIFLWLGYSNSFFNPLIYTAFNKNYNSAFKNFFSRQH
The target of another experiment is 5-HT6 (Homo sapiens, UniProt P50406). Nature of the experiment: Radioligand binding selectivity. How it is done: as §1
5-HT6, sequence (P50406 whole entry, species assumed): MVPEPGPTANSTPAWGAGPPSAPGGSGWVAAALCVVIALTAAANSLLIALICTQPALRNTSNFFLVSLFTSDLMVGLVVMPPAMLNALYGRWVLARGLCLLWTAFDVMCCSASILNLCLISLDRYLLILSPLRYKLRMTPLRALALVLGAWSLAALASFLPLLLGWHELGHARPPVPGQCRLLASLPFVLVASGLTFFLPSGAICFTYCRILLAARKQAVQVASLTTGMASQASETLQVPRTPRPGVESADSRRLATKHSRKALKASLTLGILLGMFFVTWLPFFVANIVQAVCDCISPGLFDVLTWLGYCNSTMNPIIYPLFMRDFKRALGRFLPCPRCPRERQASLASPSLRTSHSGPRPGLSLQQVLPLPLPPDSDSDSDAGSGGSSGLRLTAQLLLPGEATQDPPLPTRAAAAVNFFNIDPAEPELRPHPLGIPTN
The target of another experiment is 5-HT7 (Homo sapiens, UniProt P34969). Nature of the experiment: Radioligand binding selectivity. The method, then: as §1
5-HT7, sequence (P34969 whole entry, species assumed): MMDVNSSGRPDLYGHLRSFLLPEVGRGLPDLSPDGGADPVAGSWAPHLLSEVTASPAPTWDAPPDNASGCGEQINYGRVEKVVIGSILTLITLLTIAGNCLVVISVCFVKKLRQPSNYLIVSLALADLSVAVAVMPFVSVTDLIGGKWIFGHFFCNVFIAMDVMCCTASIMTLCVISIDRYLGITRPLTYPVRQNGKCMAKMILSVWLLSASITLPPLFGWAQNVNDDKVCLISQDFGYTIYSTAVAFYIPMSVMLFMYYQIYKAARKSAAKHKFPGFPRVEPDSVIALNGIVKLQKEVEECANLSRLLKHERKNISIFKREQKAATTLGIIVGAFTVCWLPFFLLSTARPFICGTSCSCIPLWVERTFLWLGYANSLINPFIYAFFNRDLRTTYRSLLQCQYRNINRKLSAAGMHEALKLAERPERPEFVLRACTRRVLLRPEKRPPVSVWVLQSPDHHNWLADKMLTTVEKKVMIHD
A further experiment deals with Kappa Opioid (Homo sapiens, UniProt P41145). Nature of the experiment: Radioligand binding selectivity. The method, then: as §1
Kappa Opioid, sequence (P41145 whole entry): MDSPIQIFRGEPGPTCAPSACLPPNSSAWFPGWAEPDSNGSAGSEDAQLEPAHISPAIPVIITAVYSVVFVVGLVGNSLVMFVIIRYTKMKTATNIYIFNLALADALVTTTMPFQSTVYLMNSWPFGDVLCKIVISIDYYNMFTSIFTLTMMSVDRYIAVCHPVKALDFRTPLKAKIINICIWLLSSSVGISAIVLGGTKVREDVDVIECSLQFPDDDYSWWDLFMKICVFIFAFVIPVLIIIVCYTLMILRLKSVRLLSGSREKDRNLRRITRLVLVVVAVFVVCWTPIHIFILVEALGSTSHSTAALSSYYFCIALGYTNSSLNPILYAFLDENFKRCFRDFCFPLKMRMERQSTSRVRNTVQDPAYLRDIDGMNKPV
The target of a further experiment is Mu Opioid (Homo sapiens, UniProt P35372). Description: Radioligand binding selectivity. How it is done:
as §1

For a further experiment, the target named is Muscarinic M1 (Homo sapiens, UniProt P11229). Nature of the experiment: Radioligand binding selectivity. The method, then:
as §1

The target in another experiment is Muscarinic M2 (Homo sapiens, UniProt P08172). Description: Radioligand binding selectivity. How it is done: as §1
The target in the next experiment is Muscarinic M3 (Homo sapiens, UniProt P20309). Description: Radioligand binding selectivity. The method, then: as §1
In another experiment the target is Muscarinic M4 (Homo sapiens, UniProt P08173). Nature of the experiment: Radioligand binding selectivity. The method, then:
as §1

The next experiment concerns the target Muscarinic M5 (Homo sapiens, UniProt P08912). Nature of the experiment: Radioligand binding selectivity. The method, then: as §1
The target of experiment [1] is T1, nociceptin/ORL1 receptors (Rattus norvegicus, UniProt P35370).
T1 construct: rats are sacrificed by cervical dislocation and the hypothalamus is removed; from tissue; host or cells: rat hypothalamus (in vivo occupancy)
Description: In vivo receptor occupancy (LC/MS/MS, RO Tracer) in hypothalamus. Conditions: oral 3 mg/kg dose after 6 hr.

Experiment [2] concerns the target human ERG (hERG) K+ channel (Homo sapiens, UniProt Q12809). Nature of the experiment: hERG channel [3H]astemizole binding assay. Conditions: HEK293 cells expressing cloned hERG, [3H]astemizole 2 nM; read-out: Ki for hERG K+ channel. How it is done:
Blockade of K^+-channel conductance in the heart is associated with cardiotoxicity in the form of QT-wave prolongation. The affinity (Ki) of the exemplified nociceptin receptor antagonists for the human ERG (hERG) K^+ channel is determined in HEK293 cells expressing cloned hERG using the hERG channel antagonist radioligand [3H]astemizole (2 nM final assay concentration) according to well known procedures (see for example Finlayson K, et al. (Eur J Pharmacol. 412(3):203-12, 2001) [3H]Astemizole binding assays are performed at the contract research company Cerep (Paris France) according to standard procedures.
In general terms: Block of hERG is tested as a sign of cardiac risk.

The subject of experiment [3] is wild type and ORL knockout mice. Description: Blockade of fasting-induced hyperphagia in mice. In kind it is in vivo, mouse. Conditions: wild type mice, oral gavage 30 min. prior to food, food intake 1 hr. The source says: Blockade of fasting-induced hyperphagia in rats is an accepted model for hyperphagic eating disorders. […] Mice are individually housed a minimum of 3 days prior to the onset of testing to eliminate any effects of stress due to the change from group to individual housing. Three mice/genotype are randomly assigned to each treatment group on the test day. Pre-fast body weight measurements are taken, and food is then removed from cages overnight. Mice are fasted for approximately 15 hr. The next morning, the mice are given one of three doses of drug or vehicle via oral gavage 30 min. prior to gaining access to food. Drugs are dissolved in 20% Captisol dissolved in 25 mM phosphate buffer, pH 2.0. Measurements of body weight are taken immediately prior to drug treatment or 24 hr. after access to food is restored. […] Measurements of food intake are recorded 1 hr following access to food, as indicated, by weight of food remaining at 1 hr. It should be noted that food intake measured is during the light phase, a time during which mice are typically at rest and not normally eating. Following initial testing, mice are rested for 1 week with access to unlimited chow.

5-HT2B, sequence (P41595 whole entry, species assumed): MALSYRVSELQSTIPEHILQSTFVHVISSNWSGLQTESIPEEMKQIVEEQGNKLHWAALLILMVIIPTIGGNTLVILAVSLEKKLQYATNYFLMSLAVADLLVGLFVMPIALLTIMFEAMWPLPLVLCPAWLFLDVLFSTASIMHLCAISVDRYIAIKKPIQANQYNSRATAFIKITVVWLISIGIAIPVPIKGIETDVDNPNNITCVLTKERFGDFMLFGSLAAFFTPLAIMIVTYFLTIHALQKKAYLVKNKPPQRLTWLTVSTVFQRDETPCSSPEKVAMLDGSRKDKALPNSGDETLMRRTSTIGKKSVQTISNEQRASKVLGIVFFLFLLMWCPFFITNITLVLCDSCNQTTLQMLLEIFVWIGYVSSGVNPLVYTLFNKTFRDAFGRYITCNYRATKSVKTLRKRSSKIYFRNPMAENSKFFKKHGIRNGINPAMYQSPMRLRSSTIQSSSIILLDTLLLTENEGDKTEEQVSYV
Muscarinic M1, sequence (P11229 whole entry): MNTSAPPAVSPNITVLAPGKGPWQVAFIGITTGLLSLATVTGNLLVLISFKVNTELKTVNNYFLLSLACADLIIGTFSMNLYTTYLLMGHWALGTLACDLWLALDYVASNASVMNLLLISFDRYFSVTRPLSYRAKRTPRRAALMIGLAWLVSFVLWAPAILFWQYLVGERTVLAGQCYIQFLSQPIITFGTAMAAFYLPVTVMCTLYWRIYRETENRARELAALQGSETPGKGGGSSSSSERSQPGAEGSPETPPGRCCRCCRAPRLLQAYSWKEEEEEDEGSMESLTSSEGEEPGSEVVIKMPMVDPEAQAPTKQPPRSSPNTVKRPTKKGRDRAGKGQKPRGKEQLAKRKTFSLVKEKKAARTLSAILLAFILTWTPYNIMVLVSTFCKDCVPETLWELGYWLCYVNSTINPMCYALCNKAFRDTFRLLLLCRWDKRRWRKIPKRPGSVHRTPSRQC
Muscarinic M4, sequence (P08173 whole entry): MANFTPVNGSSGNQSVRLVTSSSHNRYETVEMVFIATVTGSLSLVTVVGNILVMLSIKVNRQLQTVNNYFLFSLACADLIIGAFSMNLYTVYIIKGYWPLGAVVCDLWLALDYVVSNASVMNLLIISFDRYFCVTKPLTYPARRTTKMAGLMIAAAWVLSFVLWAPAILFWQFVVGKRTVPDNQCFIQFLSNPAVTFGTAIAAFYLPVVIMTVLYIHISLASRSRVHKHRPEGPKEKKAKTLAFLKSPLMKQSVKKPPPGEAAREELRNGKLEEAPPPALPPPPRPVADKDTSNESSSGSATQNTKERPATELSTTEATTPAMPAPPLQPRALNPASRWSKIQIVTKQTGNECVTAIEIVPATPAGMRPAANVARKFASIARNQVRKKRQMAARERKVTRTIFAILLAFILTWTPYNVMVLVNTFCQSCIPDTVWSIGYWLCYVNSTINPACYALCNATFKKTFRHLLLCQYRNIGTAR
5-HT2A, sequence (P28223 whole entry, species assumed): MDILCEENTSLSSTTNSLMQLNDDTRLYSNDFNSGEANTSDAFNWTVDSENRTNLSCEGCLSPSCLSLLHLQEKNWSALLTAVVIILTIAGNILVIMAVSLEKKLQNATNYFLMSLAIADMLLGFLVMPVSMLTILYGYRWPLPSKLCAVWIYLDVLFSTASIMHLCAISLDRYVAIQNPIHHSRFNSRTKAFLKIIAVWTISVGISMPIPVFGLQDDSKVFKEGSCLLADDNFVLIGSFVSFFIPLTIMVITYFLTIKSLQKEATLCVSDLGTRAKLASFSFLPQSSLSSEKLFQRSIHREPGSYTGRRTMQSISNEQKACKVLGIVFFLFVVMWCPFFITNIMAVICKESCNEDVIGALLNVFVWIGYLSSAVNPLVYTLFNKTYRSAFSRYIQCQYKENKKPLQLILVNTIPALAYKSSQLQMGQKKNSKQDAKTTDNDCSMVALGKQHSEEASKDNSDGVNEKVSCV
human ERG (hERG) K+ channel, sequence (Q12809 whole entry): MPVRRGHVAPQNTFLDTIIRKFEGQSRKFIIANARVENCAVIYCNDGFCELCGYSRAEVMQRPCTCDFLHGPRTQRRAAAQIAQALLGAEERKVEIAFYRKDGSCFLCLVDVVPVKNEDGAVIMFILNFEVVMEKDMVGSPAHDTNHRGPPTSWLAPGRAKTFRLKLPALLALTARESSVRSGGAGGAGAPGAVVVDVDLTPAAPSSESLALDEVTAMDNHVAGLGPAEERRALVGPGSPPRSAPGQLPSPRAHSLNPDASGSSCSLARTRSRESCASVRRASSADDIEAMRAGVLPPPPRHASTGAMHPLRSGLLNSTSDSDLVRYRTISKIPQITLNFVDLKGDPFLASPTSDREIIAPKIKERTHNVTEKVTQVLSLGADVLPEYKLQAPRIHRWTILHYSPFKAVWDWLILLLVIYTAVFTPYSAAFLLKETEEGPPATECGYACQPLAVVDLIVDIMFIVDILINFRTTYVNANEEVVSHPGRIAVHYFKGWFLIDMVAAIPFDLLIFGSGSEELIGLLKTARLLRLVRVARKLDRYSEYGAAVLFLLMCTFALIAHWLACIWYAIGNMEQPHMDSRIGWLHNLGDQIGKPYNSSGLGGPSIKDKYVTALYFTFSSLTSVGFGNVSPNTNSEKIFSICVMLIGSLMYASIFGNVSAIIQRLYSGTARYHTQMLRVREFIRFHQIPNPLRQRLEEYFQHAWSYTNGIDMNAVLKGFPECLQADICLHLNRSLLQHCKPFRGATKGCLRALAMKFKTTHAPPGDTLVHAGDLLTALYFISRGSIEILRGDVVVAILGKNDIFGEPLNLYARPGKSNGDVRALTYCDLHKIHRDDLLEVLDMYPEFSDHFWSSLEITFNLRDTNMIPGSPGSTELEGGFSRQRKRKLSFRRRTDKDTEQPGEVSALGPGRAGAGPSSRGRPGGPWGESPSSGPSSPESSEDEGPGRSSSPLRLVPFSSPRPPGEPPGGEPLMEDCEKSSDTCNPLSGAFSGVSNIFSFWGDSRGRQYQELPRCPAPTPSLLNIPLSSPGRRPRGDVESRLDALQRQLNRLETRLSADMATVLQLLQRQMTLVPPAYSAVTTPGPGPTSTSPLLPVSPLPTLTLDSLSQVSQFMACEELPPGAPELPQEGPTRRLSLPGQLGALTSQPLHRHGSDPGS

Turning to `Cc1nn(-c2c(F)cccc2F)cc1CN1CCC2(CC1)OCC(F)(F)c1cc(Cl)sc12.O=C(O)C(O)C(O)C(=O)O` [Example 2, 2-Chloro-1′-[[1-(2,6-difluorophenyl)-3-methyl-pyrazol-4-yl]methyl]-4,4-difluoro-spiro[5H-thieno[2,3-c]pyran-7,4′-piperidine] (L)-Tartrate], the Ki at 5-HT1A is over 3.18 µM; on 5-HT1B, over 3.58 µM; at 5-HT1D it was over 7.89 µM; at 5-HT1E, over 5.37 µM; on 5-HT2A, over 7.18 µM; at 5-HT2B, 1.16 µM. The inhibition constant (Ki) at 5-HT2C is over 8.36 µM; on 5-HT4, over 1.97 µM; on 5-HT5 it was over 9.02 µM; at 5-HT6, over 5.83 µM; at 5-HT7, over 3.98 µM; on Kappa Opioid it was over 0.458 µM. Moreover, the Ki is over 0.467 µM at Mu Opioid; 1.38 µM on Muscarinic M1; over 8 µM on Muscarinic M2; over 24.2 µM on Muscarinic M3; 6.36 µM on Muscarinic M4; 2.8 µM on Muscarinic M5. For the same molecule, the inhibition constant Ki in experiment [2] amounted to 2.89 µM. In experiment [1], the receptor occupancy at 3 mg/kg came out at 76%. In [3], the fasting-induced hyperphagia entry is recorded as “substantially block fasting-induced hyperphagia”.

As usually defined, the Ki is the equilibrium dissociation constant of an inhibitor or competing ligand from its target.
